Test systems include ACHN renal; OVCAR-3 ovarian; COLO 205 colon; MDA-MB-435; SF-295 CNS; UACC-62 melanoma; HOP-62 NSCLC; UO-31 renal; HCC-2998 colon; MALME-3M melanoma.
Assay in all cases: inhibition of tumour cell growth, NCI panel, 48 h

Values joined by “and” are separate entries in the source; they are usually repeats but may differ in a detail not shown here. Identical values can stand only once.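 Grown in 96-well plates, cells were treated for 48 hours with each compound at five concentrations. Insufficient inhibition: endpoint recorded as highest concentration tested. GI50 = concentration required for 50% inhibition of growth. TGI denotes the concentration required for complete inhibition of growth.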

In the case of `COc1cc(-c2ccc[nH]2)[nH]c1/C=C1\N=C(C)C(C(=O)NC(C)C)=C1C`, the GI50 was 3590 nM in the assay on ACHN renal; 3030 nM in the assay on OVCAR-3 ovarian; 3250 nM in the assay on COLO 205 colon; 4.51 µM in the assay on MDA-MB-435; 2900 nM with SF-295 CNS; 2680 nM in the assay with UACC-62 melanoma. Also, the GI50 is 3770 nM with HOP-62 NSCLC, 2.72 µM in the assay with UO-31 renal, 2870 nM with HCC-2998 colon and 4.6 µM in the assay with MALME-3M melanoma. The TGI in the assay with ACHN renal stood at 13.3 µM; in the assay with OVCAR-3 ovarian it was 14.2 µM; in the assay with COLO 205 colon, 14.1 µM; in the assay on MDA-MB-435, 19.5 µM; in the assay on SF-295 CNS, 11.4 µM; in the assay with UACC-62 melanoma it was 6.77 µM. The TGI in the assay with HOP-62 NSCLC came to 15.8 µM; in the assay on UO-31 renal, 11 µM; in the assay on HCC-2998 colon it was 13.8 µM; in the assay on MALME-3M melanoma, 16.9 µM.
In the case of `C=C(c1ccc(C(=O)NCCCn2ccnc2)cc1)c1cc2c(cc1C)C(C)(C)CCC2(C)C`, the GI50 with ACHN renal was 2160 nM; in the assay on OVCAR-3 ovarian it was 1690 nM; with COLO 205 colon, 1120 nM; in the assay with MDA-MB-435, 0.0734 µM; in the assay with SF-295 CNS, 1310 nM; with UACC-62 melanoma, 1670 nM. Also, the GI50 is 2460 nM in the assay with HOP-62 NSCLC, 3.93 µM in the assay with UO-31 renal, 419 nM with HCC-2998 colon and 3.2 µM in the assay with MALME-3M melanoma. Besides, the TGI amounted to 14.1 µM in the assay with ACHN renal; 6.09 µM in the assay on OVCAR-3 ovarian; 3.28 µM with COLO 205 colon; 16 µM in the assay on MDA-MB-435; 18.7 µM with SF-295 CNS; 3.92 µM in the assay on UACC-62 melanoma. Moreover, the TGI with HOP-62 NSCLC came out at 11.6 µM; with UO-31 renal, 17.7 µM; in the assay with HCC-2998 colon it was 3.85 µM; in the assay on MALME-3M melanoma, 22.4 µM.
In the case of `COc1ccccc1CNCCCN1C(=O)c2ccc3c4c(ccc(c24)C1=O)C(=O)N(CCCNCCCCN)C3=O`, the GI50 is 576 nM in the assay on ACHN renal; 304 nM in the assay with OVCAR-3 ovarian; 125 nM in the assay on COLO 205 colon; 0.184 µM in the assay on MDA-MB-435; 678 nM with SF-295 CNS; 237 nM in the assay on UACC-62 melanoma. Moreover, the GI50 with HOP-62 NSCLC is 546 nM; in the assay with UO-31 renal, 1.95 µM; in the assay with HCC-2998 colon it was 171 nM; in the assay with MALME-3M melanoma, 0.176 µM. Besides, the TGI was 11.1 µM in the assay on ACHN renal; 0.81 µM in the assay with OVCAR-3 ovarian; 0.263 µM in the assay with COLO 205 colon; 0.397 µM in the assay with MDA-MB-435; 2.79 µM with SF-295 CNS; 0.674 µM in the assay on UACC-62 melanoma. In addition, the TGI in the assay on HOP-62 NSCLC stood at 2.1 µM; in the assay with UO-31 renal it was 9.92 µM; in the assay on HCC-2998 colon, 0.417 µM; in the assay with MALME-3M melanoma it was 0.327 µM.
Turning to `COc1ccc([C@H]2c3[nH]c4ccccc4c3C[C@H]3C(=O)N(CCCCCCC(=O)NO)CC(=O)N23)cc1`, the GI50 in the assay on ACHN renal is 1920 nM; in the assay with OVCAR-3 ovarian, 1880 nM; in the assay on COLO 205 colon it was 2040 nM; with MDA-MB-435 it was 3.32 µM; in the assay with SF-295 CNS, 1910 nM; with UACC-62 melanoma, 705 nM. Further, the GI50 is 2450 nM with HOP-62 NSCLC, 1.47 µM with UO-31 renal, 1150 nM in the assay on HCC-2998 colon and 0.806 µM in the assay with MALME-3M melanoma. Besides, the TGI in the assay on ACHN renal came to 12.8 µM; in the assay on OVCAR-3 ovarian it was 17.4 µM; with COLO 205 colon, 15 µM; in the assay on MDA-MB-435, 15.1 µM; in the assay on SF-295 CNS it was 12.4 µM; with UACC-62 melanoma, 3.97 µM. In addition, the TGI in the assay on HOP-62 NSCLC was greater than 33.3 µM; in the assay with UO-31 renal it was greater than 33.3 µM; with HCC-2998 colon, 5.34 µM; with MALME-3M melanoma, greater than 33.3 µM.
For the molecule `c1ccc2[nH]c(-c3cscn3)nc2c1`, the TGI with ACHN renal, with OVCAR-3 ovarian, in the assay with COLO 205 colon, in the assay with MDA-MB-435, in the assay on SF-295 CNS and in the assay on UACC-62 melanoma was greater than 100 µM each time. Moreover, the TGI was > 100 µM and 19.6 µM in the assay on HOP-62 NSCLC; greater than 100 µM in the assay with UO-31 renal; greater than 100 µM in the assay with HCC-2998 colon; greater than 100 µM in the assay with MALME-3M melanoma. Moreover, the GI50 in the assay with UO-31 renal is > 100 µM and 25.8 µM.
For the molecule `C=C1CCC2C(C)(CO)C(O)CCC2(C)C1C/C=C1\C(=O)OCC1O` (centres undefined), the TGI is greater than 100 µM with ACHN renal; 21.2 µM in the assay with OVCAR-3 ovarian; 27.9 µM with COLO 205 colon; 22.9 µM in the assay on MDA-MB-435; 52.5 µM in the assay on SF-295 CNS; 57.5 µM with UACC-62 melanoma. Further, the TGI with HOP-62 NSCLC is 54.4 µM; with UO-31 renal, greater than 100 µM; in the assay on HCC-2998 colon, 50.6 µM; with MALME-3M melanoma, 30.2 µM.
As for `COc1cc(OC)c(OC)cc1/C=C\c1ccnc2ccccc12`, the TGI is greater than 100 µM in the assay on ACHN renal; 7.44 µM in the assay on OVCAR-3 ovarian; 3.86 µM in the assay on COLO 205 colon; 0.534 µM with MDA-MB-435; 3.55 µM in the assay with SF-295 CNS; greater than 67.9 µM in the assay on UACC-62 melanoma. Moreover, the TGI with HOP-62 NSCLC was greater than 62.1 µM; with UO-31 renal, greater than 80.6 µM; with HCC-2998 colon, 17.8 µM; with MALME-3M melanoma, greater than 100 µM.
`COc1cc(C(=O)Nc2ccc(-c3nc4ccccc4[nH]3)cc2)cc(OC)c1OC`: the GI50 in the assay on ACHN renal was 8230 nM; with OVCAR-3 ovarian it was 12400 nM; in the assay with COLO 205 colon, 15300 nM; with MDA-MB-435, 13.5 µM; in the assay on SF-295 CNS it was 10700 nM; in the assay with UACC-62 melanoma, 9890 nM. In addition, the GI50 in the assay on HOP-62 NSCLC was 6440 nM; in the assay on UO-31 renal it was 3.92 µM; in the assay on HCC-2998 colon, 14600 nM; in the assay on MALME-3M melanoma, 12 µM. Also, the TGI in the assay on ACHN renal worked out at 23.1 µM; in the assay on OVCAR-3 ovarian, 27.9 µM; in the assay on COLO 205 colon, 39.1 µM; in the assay on MDA-MB-435, 31 µM; with SF-295 CNS it was 25.5 µM; with UACC-62 melanoma, 24.4 µM. Further, the TGI was 23.9 µM in the assay on HOP-62 NSCLC, 16.1 µM in the assay on UO-31 renal, 36.6 µM in the assay with HCC-2998 colon and 31.6 µM with MALME-3M melanoma.
In the case of `CC(=O)Nc1ccc2c(c1)[nH]c(=O)c1cc(Cl)ccc12`, the TGI with ACHN renal, in the assay with COLO 205 colon, in the assay with MDA-MB-435, in the assay on SF-295 CNS, in the assay on UACC-62 melanoma and with HOP-62 NSCLC was greater than 100 µM throughout. In addition, the TGI in the assay on UO-31 renal was greater than 100 µM; in the assay with HCC-2998 colon, greater than 100 µM; in the assay on MALME-3M melanoma, 46.7 µM.
On to `CCCC/C=C1/CCC(CN(C)C)C1=O` (centres undefined), for which the TGI was 4.6 µM in the assay on ACHN renal; 3.72 µM in the assay on OVCAR-3 ovarian; 3.04 µM in the assay on COLO 205 colon; 23.1 µM in the assay on MDA-MB-435; 13 µM with SF-295 CNS; 4.96 µM in the assay on UACC-62 melanoma. Moreover, the TGI in the assay with HOP-62 NSCLC came out at 35.2 µM; in the assay on UO-31 renal, 5.97 µM; in the assay on HCC-2998 colon, 3.07 µM; in the assay on MALME-3M melanoma, 4.07 µM.
Take `COc1cc(COC(=O)N(C)[C@@H](Cc2ccccc2)C(=O)O)c([N+](=O)[O-])cc1OC`: the TGI with ACHN renal, with OVCAR-3 ovarian, in the assay with MDA-MB-435, in the assay with SF-295 CNS, in the assay with UACC-62 melanoma and in the assay on HOP-62 NSCLC was greater than 100 µM in each case. Further, the TGI in the assay with UO-31 renal, in the assay with HCC-2998 colon and in the assay with MALME-3M melanoma was greater than 100 µM throughout.
As to `Cc1nc(Nc2ccc(Cl)c(Cl)c2)sc1C(/C=C/c1ccc2c(c1)OCO2)=N/Nc1ccc([N+](=O)[O-])cc1[N+](=O)[O-]`, the TGI is greater than 100 µM with ACHN renal; greater than 100 µM in the assay on OVCAR-3 ovarian; greater than 100 µM with COLO 205 colon; greater than 100 µM with MDA-MB-435; greater than 100 µM in the assay with SF-295 CNS; greater than 88 µM in the assay with UACC-62 melanoma. Also, the TGI in the assay with HOP-62 NSCLC is greater than 84 µM; in the assay on UO-31 renal, greater than 100 µM; in the assay on HCC-2998 colon it was greater than 100 µM; with MALME-3M melanoma it was greater than 100 µM.
Turning to `CC(=O)OCCc1cc2ccccc2oc1=O`, the TGI with ACHN renal, with OVCAR-3 ovarian, with COLO 205 colon, in the assay with MDA-MB-435, with SF-295 CNS and with UACC-62 melanoma was greater than 100 µM throughout. Besides, the TGI in the assay on HOP-62 NSCLC, with UO-31 renal, in the assay with HCC-2998 colon and with MALME-3M melanoma was greater than 100 µM in each case.
As to `CN(C)CC(=O)N1CCc2c([nH]c3ccccc23)C1c1cccnc1` (centres undefined), the TGI in the assay with ACHN renal, in the assay on OVCAR-3 ovarian, in the assay with COLO 205 colon, in the assay with MDA-MB-435, in the assay on UACC-62 melanoma and with HOP-62 NSCLC was greater than 100 µM each time. Also, the TGI with UO-31 renal, in the assay with HCC-2998 colon and in the assay on MALME-3M melanoma was greater than 100 µM throughout. Also, the results for the GI50 in the assay with COLO 205 colon, in the assay on MDA-MB-435 and with MALME-3M melanoma were 99700 nM, greater than 100 µM and greater than 100 µM, respectively.
On to `CC(=O)O[C@H]1C(=O)[C@@]2(C)C([C@H](OC(=O)c3ccccc3)[C@]3(O)C[C@H](OC(=O)[C@H](O)[C@@H](NC(=O)c4ccc(Cl)cc4)c4ccccc4)C(C)=C1C3(C)C)C1(OC(C)=O)CO[C@@H]1C[C@@H]2O` (some centres undefined), for which the GI50 in the assay on ACHN renal was 10300 nM; in the assay on SF-295 CNS it was 177 nM; in the assay on HOP-62 NSCLC, 261 nM; in the assay with UO-31 renal, 4.77 µM; with MALME-3M melanoma, 0.0599 µM. Also, the TGI with ACHN renal was 25 µM and > 100 µM; in the assay with OVCAR-3 ovarian it was 0.108 µM; with MDA-MB-435, 0.0126 µM; in the assay on UACC-62 melanoma, 0.178 µM; in the assay with HOP-62 NSCLC, 25 µM and 25.2 µM; in the assay on UO-31 renal, 25 µM and 53.8 µM. For the same molecule, the TGI was 0.608 µM with HCC-2998 colon; 25 µM and 24.1 µM in the assay with MALME-3M melanoma.
